# Data as given in ChEMBL document CHEMBL4602617, “Discovery and optimization of heteroaryl piperazines as potent and selective PI3Kδ inhibitors” (Bioorg Med Chem Lett, 2020).
# Tests used:
# [1] = biological target: 5-hydroxytryptamine receptor 3A (Homo sapiens) (UniProt P46098); assay: Displacement of [3H]GR-65630 from full length human recombinant 5HT3 receptor expressed in HEK293 cells at 10 uM measured after 60 mins by radiometric scintillation analysis relative to control; format: cell-based
# Chain of 5-hydroxytryptamine receptor 3A (Homo sapiens) (P46098 whole entry): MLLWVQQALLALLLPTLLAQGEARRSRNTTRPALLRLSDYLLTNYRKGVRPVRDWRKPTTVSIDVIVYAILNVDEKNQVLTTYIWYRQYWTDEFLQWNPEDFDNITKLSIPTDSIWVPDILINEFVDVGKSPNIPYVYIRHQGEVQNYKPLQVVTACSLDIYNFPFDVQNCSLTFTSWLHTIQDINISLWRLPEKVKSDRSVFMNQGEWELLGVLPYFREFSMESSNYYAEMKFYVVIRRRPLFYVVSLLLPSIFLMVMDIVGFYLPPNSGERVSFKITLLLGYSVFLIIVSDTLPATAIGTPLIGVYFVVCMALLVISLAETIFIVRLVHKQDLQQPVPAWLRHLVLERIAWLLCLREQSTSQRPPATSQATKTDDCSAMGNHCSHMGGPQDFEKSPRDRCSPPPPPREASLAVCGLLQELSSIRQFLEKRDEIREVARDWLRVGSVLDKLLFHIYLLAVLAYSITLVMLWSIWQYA
# [2] = biological target: Serine/threonine-protein kinase PLK2 (Homo sapiens, UniProt Q9NYY3); assay: Inhibition of recombinant full length human GST-tagged PLK2 expressed in baculovirus expression system using serine/threonine-16 peptide as substrate incubated for 60 mins in presence of ATP by Z'-LYTE assay
# Chain of Serine/threonine-protein kinase PLK2 (Q9NYY3 whole entry): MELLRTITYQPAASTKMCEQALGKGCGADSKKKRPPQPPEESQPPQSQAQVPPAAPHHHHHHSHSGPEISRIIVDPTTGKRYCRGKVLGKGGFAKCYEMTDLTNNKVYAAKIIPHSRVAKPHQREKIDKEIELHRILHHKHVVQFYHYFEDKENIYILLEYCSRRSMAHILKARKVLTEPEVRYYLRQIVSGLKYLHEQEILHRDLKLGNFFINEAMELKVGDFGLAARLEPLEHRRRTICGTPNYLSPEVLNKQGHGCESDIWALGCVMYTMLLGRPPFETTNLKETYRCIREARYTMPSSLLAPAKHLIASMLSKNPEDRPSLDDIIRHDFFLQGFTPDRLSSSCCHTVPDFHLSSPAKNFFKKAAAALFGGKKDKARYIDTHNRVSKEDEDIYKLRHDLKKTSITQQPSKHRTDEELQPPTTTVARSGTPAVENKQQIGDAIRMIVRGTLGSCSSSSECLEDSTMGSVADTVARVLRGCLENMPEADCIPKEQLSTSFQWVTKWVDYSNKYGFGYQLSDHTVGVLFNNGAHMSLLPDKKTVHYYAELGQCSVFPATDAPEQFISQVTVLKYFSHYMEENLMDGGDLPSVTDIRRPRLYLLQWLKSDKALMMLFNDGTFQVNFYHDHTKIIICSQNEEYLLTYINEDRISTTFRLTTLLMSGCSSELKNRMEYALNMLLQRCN
# [3] = biological target: G protein-coupled receptor kinase 5 (Homo sapiens, UniProt P34947); assay: Inhibition of recombinant full length human GST-tagged GRK5 expressed in baculovirus expression system using serine/threonine-16 peptide as substrate incubated for 60 mins in presence of ATP by Z'-LYTE assay
# [4] = biological target: Mitogen-activated protein kinase 14 (Homo sapiens, UniProt Q16539); assay: Inhibition of recombinant full length GST-tagged human inactive MAPK14 expressed in Escherichia coli using Ser/Thr 04 as substrate after 1 hr in presence of ATP by Z'LYTE assay
# [5] = biological target: Voltage-dependent L-type calcium channel subunit alpha-1C (Homo sapiens, UniProt Q13936); assay: Inhibition of Cav1.2 (unknown origin)
# Chain of Voltage-dependent L-type calcium channel subunit alpha-1C (Q13936 whole entry): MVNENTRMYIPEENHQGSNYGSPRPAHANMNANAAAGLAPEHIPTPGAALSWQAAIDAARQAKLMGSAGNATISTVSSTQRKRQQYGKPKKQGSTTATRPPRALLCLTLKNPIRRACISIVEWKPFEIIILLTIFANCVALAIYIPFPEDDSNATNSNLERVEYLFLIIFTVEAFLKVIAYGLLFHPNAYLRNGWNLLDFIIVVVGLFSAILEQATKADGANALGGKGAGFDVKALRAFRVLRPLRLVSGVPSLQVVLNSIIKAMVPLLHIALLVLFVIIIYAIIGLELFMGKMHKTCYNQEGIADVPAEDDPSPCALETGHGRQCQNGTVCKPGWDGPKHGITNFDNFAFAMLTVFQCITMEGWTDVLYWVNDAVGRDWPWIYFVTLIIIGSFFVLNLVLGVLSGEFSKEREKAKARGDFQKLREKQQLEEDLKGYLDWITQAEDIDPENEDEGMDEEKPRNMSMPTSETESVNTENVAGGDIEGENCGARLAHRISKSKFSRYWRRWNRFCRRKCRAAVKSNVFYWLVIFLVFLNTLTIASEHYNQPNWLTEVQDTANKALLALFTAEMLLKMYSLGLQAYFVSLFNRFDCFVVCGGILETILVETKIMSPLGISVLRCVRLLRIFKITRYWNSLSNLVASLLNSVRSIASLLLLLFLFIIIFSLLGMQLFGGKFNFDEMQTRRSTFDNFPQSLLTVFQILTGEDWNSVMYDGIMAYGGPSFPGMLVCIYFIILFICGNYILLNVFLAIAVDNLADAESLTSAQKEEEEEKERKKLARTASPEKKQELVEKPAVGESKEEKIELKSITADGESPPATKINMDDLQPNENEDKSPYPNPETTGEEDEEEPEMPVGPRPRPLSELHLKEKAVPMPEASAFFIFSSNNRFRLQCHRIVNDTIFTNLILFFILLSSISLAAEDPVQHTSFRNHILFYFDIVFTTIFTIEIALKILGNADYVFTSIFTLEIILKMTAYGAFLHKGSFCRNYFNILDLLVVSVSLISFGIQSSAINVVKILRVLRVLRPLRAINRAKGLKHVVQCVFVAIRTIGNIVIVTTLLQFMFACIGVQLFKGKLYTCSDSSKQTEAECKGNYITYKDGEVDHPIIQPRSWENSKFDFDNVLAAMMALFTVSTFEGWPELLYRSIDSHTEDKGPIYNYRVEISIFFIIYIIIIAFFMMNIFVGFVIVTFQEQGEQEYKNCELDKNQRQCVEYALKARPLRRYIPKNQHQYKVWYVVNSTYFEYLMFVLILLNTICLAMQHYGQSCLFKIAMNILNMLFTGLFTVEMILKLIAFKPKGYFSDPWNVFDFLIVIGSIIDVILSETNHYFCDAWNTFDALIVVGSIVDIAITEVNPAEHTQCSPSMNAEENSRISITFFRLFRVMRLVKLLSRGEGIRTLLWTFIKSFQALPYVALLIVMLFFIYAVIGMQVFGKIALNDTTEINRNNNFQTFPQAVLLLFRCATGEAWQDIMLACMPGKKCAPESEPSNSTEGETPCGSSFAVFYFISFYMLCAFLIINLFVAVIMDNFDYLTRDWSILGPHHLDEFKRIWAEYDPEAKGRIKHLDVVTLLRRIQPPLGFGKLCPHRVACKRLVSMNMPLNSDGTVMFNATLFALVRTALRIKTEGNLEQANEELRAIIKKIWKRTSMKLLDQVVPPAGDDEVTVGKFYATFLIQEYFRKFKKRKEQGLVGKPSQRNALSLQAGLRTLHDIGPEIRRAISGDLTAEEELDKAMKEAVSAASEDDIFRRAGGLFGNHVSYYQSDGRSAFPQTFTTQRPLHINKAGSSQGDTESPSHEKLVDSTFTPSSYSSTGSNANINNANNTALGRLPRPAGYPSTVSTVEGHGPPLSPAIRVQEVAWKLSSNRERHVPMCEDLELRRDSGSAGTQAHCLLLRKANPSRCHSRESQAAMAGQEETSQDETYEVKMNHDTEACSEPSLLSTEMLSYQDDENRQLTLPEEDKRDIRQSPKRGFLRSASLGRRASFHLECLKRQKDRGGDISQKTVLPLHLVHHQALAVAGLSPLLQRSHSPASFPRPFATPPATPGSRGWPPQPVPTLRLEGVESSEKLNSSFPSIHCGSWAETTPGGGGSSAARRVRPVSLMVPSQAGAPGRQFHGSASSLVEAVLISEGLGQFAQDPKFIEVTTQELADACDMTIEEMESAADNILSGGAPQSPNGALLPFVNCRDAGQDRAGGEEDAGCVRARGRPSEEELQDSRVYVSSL
# [6] = biological target: Calcium/calmodulin-dependent protein kinase type 1 (Homo sapiens, UniProt Q14012); assay: Inhibition of full length human CAMK1 alpha expressed in baculovirus expression system using ZIPtide as substrate after 1 hr in presence of ATP by TR-FRET based assay
# [7] = biological target: Substance-P receptor (Homo sapiens) (UniProt P25103); assay: Displacement of [3H]substance P from recombinant full length human NK1R expressed in CHO cells at 10 uM after 90 mins by radiometric scintillation analysis relative to control; format: cell-based
# Chain of Substance-P receptor (Homo sapiens) (P25103 whole entry): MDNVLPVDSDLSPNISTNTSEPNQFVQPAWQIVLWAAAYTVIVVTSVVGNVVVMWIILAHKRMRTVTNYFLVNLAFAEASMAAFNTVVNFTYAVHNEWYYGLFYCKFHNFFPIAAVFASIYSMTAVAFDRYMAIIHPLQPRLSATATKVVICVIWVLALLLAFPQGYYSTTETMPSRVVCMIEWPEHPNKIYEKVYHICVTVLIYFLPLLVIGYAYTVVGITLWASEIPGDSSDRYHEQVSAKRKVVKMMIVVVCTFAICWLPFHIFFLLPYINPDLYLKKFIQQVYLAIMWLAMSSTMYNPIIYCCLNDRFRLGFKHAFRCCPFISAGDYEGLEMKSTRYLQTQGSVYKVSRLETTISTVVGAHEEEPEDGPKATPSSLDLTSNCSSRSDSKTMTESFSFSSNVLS
# [8] = biological target: Histamine H2 receptor (Homo sapiens) (UniProt P25021); assay: Displacement of [125I]aminopotentidine from full length human recombinant histamine H2 receptor expressed in CHO-K1 cells at 10 uM measured after 120 mins by radiometric scintillation analysis relative to control; format: cell-based
# Chain of Histamine H2 receptor (Homo sapiens) (P25021 whole entry, the tested form may be a part): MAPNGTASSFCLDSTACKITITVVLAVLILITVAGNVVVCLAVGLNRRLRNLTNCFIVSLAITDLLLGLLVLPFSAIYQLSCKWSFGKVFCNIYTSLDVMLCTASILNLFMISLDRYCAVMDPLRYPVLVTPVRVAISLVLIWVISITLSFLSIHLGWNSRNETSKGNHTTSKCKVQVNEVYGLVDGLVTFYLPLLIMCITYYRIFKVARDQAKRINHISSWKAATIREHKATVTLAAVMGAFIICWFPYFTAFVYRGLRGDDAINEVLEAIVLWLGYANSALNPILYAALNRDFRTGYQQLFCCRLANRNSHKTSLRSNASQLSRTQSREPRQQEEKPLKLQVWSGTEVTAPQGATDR
# [9] = biological target: Mitogen-activated protein kinase kinase kinase kinase 4 (Homo sapiens, UniProt O95819); assay: Inhibition of recombinant GST-tagged human MAP4K4 catalytic domain expressed in baculovirus expression system using Ser/Thr 07 peptide as substrate after 1 hr in presence of ATP by Z'-LYTE assay
# [10] = biological target: D(1A) dopamine receptor (Homo sapiens) (UniProt P21728); assay: Displacement of [3H]SCH-23390 from recombinant full length human recombinant dopamine D1 receptor expressed in CHO cells at 10 uM measured after 120 mins by radiometric scintillation analysis relative to control; format: cell-based
# Chain of D(1A) dopamine receptor (Homo sapiens) (P21728 whole entry): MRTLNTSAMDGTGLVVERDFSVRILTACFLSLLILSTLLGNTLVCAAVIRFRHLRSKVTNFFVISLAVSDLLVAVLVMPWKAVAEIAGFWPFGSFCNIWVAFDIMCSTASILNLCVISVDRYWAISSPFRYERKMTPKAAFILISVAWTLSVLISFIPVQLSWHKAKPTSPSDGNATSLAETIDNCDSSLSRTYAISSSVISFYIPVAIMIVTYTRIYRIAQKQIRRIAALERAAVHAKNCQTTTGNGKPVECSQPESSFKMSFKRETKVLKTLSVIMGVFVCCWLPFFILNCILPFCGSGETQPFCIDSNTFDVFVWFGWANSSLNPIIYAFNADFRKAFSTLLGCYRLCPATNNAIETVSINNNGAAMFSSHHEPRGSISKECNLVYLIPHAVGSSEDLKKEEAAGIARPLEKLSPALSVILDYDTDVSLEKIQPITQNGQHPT
# [11] = biological target: Kappa-type opioid receptor (Homo sapiens) (UniProt P41145); assay: Displacement of [3H]diprenorphine from full length human recombinant KOP receptor expressed in HEK293 cells at 10 uM measured after 60 mins by radiometric scintillation analysis relative to control; format: cell-based
# [12] = biological target: T1, Phosphatidylinositol 4,5-bisphosphate 3-kinase catalytic subunit delta isoform (Homo sapiens, UniProt O00329); assay: Inhibition of PI3K delta in human whole blood assessed as inhibition of anti-IgE-stimulated CysLt release in basophils preincubated for 30 mins followed by anti-IgE stimulation and measured after 20 mins; format: tissue-based
# T1 sequence (O00329 whole entry): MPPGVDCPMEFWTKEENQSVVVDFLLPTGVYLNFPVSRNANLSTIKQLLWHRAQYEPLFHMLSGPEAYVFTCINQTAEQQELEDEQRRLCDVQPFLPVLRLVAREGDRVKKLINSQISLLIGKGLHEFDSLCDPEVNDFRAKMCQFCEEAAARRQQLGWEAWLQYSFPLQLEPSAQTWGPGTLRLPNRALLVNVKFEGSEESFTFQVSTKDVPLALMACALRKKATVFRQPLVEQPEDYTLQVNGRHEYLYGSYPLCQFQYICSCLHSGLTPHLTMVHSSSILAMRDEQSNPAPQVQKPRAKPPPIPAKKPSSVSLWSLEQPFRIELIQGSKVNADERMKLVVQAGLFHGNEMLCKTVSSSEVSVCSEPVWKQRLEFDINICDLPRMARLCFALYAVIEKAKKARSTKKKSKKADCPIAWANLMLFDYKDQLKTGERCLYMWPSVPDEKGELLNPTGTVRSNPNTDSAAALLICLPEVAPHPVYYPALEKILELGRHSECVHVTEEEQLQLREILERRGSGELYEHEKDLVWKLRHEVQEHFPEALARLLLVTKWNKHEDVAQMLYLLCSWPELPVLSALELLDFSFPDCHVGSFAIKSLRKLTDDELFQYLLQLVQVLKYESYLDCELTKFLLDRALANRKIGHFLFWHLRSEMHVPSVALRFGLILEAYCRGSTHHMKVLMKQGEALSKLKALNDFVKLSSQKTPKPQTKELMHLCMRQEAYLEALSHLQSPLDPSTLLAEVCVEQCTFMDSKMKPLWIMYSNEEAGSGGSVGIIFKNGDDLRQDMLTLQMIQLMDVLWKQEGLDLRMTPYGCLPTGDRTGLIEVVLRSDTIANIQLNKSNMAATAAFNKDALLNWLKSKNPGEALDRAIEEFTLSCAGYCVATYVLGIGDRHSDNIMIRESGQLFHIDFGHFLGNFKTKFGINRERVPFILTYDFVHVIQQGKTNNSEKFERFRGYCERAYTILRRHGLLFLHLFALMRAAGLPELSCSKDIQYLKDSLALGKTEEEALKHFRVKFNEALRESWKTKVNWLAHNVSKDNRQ
# [13] = biological target: Vasopressin V2 receptor (Homo sapiens) (UniProt P30518); assay: Displacement of [3H]-(Arg8)-Vasopressin from recombinant full length human V2 receptor expressed in CHO-K1 cells at 10 uM after 120 mins by radiometric scintillation analysis relative to control; format: cell-based
# [14] = biological target: Mast/stem cell growth factor receptor Kit (Homo sapiens, UniProt P10721, T670I); assay: Inhibition of recombinant human His-tagged KIT (544 to 976 residues) harboring T670I mutant expressed in baculovirus expression system using tyrosine-6 peptide as substrate incubated for 60 mins in presence of ATP by Z'-LYTE assay
# [15] = biological target: Tyrosine-protein kinase ITK/TSK (Homo sapiens, UniProt Q08881); assay: Inhibition of recombinant full length human GST-tagged ITK expressed in baculovirus expression system using tyrosine-1 peptide as substrate incubated for 60 mins in presence of ATP by Z'-LYTE assay
# [16] = biological target: Adenosine receptor A1 (Homo sapiens) (UniProt P30542); assay: Displacement of [3H]DPCPX from full length recombinant human A1AR expressed in CHO cell membranes at 10 uM measured after 90 mins by scintillation counting method relative to control
# [17] = biological target: Serine/threonine-protein kinase pim-1 (Homo sapiens, UniProt P11309); assay: Inhibition of recombinant full length human His-tagged PIM1 expressed in baculovirus expression system using serine/threonine-7 peptide as substrate incubated for 60 mins in presence of ATP by Z'-LYTE assay
# Chain of Serine/threonine-protein kinase pim-1 (P11309 whole entry, the tested form may be a part): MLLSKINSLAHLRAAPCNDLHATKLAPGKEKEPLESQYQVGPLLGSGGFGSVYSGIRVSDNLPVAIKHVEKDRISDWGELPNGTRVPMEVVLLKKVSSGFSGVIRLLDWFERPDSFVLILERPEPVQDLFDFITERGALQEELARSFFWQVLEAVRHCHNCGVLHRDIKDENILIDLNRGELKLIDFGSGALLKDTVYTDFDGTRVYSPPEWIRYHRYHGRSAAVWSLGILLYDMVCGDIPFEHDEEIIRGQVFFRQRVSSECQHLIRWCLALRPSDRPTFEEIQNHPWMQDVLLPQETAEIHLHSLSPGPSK
# [18] = biological target: Ephrin type-A receptor 4 (Homo sapiens, UniProt P54764); assay: Inhibition of recombinant human GST-tagged EPHA4 cytoplasmic domain expressed in baculovirus expression system using tyrosine-02 peptide as substrate incubated for 60 mins in presence of ATP by Z'-Lyte assay
compound,measurement,setting,value
C[C@@H]1C[C@H]1C(=O)N1CCN(c2cnc(C#N)c(-c3cnn(C)c3)n2)C[C@H]1C,inhibition,[1],9%
same,IC50,[2],> 100 µM
same,IC50,[3],> 100 µM
same,IC50,[4],> 100 µM
same,IC50,[5],> 30 µM
same,IC50,[6],> 100 µM
same,inhibition,[7],-1%
same,inhibition,[8],6%
same,IC50,[9],26.3 µM
same,inhibition,[10],2%
same,inhibition,[11],5%
same,IC50,[12],0.065 µM
same,inhibition,[13],1%
same,IC50,[14],> 100 µM
same,IC50,[15],> 100 µM
same,inhibition,[16],10%
same,IC50,[17],> 100 µM
same,IC50,[18],> 100 µM
